Patent publication US20160101048A1, “+L-CARNOSINE ZINC FORMULATIONS AND METHODS OF USE” (priority 2014, published 2016)

Assays:
[1] = Particle size distribution of polymeric L-carnosine zinc; format: physicochemical; details: L-carnosine zinc used in Comparative Example 1
Method: Step 2) Polymeric L-carnosine zinc with a particle size range of about 0.1 micron to about 85 microns, with a particle distribution such that 90% of the particles are 24.925 microns or smaller, 50% are 5.664 microns or smaller, and 10% are 0.826 or smaller, and the mean diameter was 9.878 microns was added to the hydrogel prepared in Step 1 to produce a composite polymeric hydrogel consisting of 150 mg L-carnosine zinc suspended in 5 ml of hydrogel.

ulcer tissue = details: chelate versus simple mixture; cited from earlier work

Substance: N-(3-aminopropionyl)-L-histidinatozinc [L-carnosine zinc]
- mean diameter [1]: 9.878 microns
- particle distribution, 10% of the particles are this size or smaller [1]: ≤ 0.826
- particle distribution, 50% of the particles are this size or smaller [1]: ≤ 5.664 microns
- particle distribution, 90% of the particles are this size or smaller [1]: ≤ 24.925 microns
- effectiveness compared with co-administration of a zinc salt together with L-carnosine (ulcer tissue): more effective than the co-administration of a zinc salt together with L-carnosine in a simple mixture
